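All cell lines were grown in 96-well plates and treated with compound for 48 hours. The concentration for 50% growth inhibition is given as GI50. The concentration for full growth arrest is given as TGI.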
Columns and labels:
Assay in all cases: NCI anticancer screen, dose series, 48 h
[1] = tested on: A549 NSCLC
[2] = tested on: SF-268 CNS
[3] = tested on: CCRF-CEM leukemia
[4] = tested on: RPMI-8226 leukemia
[5] = tested on: OVCAR-3 ovarian
[6] = tested on: ACHN renal
[7] = tested on: HCC-2998 colon
[8] = tested on: SK-MEL-5 melanoma
[9] = tested on: HCT-116 colon
[10] = tested on: A498 renal

Structure (SMILES): CCOC(=O)/C=C/C(C(=O)/C=C/c1ccc(O)c(OC)c1)=C(O)\C=C\c1ccc(O)c(OC)c1
- GI50 [1]: 4.84 µM
- TGI [1]: 24.5 µM
- GI50 [2]: 11.1 µM
- TGI [2]: 95.1 µM
- GI50 [3]: 3.62 µM
- TGI [3]: > 100 µM
- GI50 [4]: 2.6 µM
- TGI [4]: 7.23 µM
- GI50 [5]: 3.39 µM
- TGI [5]: 12.3 µM
- GI50 [6]: 2.36 µM
- TGI [6]: 6.25 µM
- GI50 [7]: 1.77 µM
- TGI [7]: 3.74 µM
- GI50 [8]: 2.22 µM
- TGI [8]: 6 µM
- GI50 [9]: 1.31 µM
- TGI [9]: 3.24 µM

Structure (SMILES): O=C(OCC1CO1)c1cccs1 (configuration not stated)
- TGI [1]: > 100 µM
- TGI [2]: > 100 µM
- TGI [3]: > 100 µM
- TGI [4]: > 100 µM
- TGI [5]: > 100 µM
- TGI [6]: > 100 µM
- TGI [7]: > 100 µM
- TGI [8]: > 100 µM

Structure (SMILES): COc1cccc(/C=C/c2cnc3ccccc3n2)c1OC
- TGI [1]: > 100 µM
- TGI [2]: > 100 µM
- TGI [10]: > 100 µM
- TGI [3]: > 100 µM
- TGI [4]: > 100 µM
- TGI [5]: > 100 µM
- TGI [6]: > 100 µM
- TGI [8]: 58.3 µM
- TGI [9]: > 100 µM

Structure (SMILES): Cc1cc(=O)oc2cc(OCc3c(F)cccc3Cl)ccc12
- TGI [1]: > 100 µM
- TGI [2]: > 100 µM
- TGI [10]: > 100 µM
- TGI [5]: > 100 µM
- TGI [6]: > 100 µM
- TGI [8]: > 100 µM
- TGI [9]: > 100 µM

Structure (SMILES): O=C(O)c1cc2cc(OCc3ccccc3)c(OCc3ccccc3)cc2[nH]1
- GI50 [2]: 26.4 µM
- TGI [2]: 79.7 µM
- GI50 [3]: 33.6 µM
- TGI [3]: > 100 µM
- GI50 [4]: 23 µM
- TGI [4]: 68.4 µM
- GI50 [5]: 17.3 µM
- TGI [5]: 31.6 µM
- GI50 [6]: 25.4 µM
- TGI [6]: 90.1 µM
- GI50 [7]: 18.7 µM
- TGI [7]: 34.7 µM
- GI50 [8]: 20.1 µM
- TGI [8]: 47.3 µM
- GI50 [9]: 17.1 µM
- TGI [9]: 30.8 µM

Structure (SMILES): COc1ccc(-c2ccc(-c3ccc(-c4ccc(C(=N)N)cc4)s3)s2)cc1OC
- GI50 [2]: 19.5 µM
- TGI [2]: 50.9 µM
- GI50 [10]: 11 µM
- TGI [10]: 27.8 µM
- GI50 [3]: 2.24 µM
- TGI [3]: 6.4 µM
- GI50 [4]: 2.86 µM
- TGI [4]: 13.4 µM
- GI50 [5]: 0.369 µM
- TGI [5]: 1.47 µM
- GI50 [6]: 3.79 µM
- TGI [6]: 15.3 µM
- GI50 [8]: 14.7 µM
- TGI [8]: 60.2 µM

Structure (SMILES): S=C1Nc2ccc(Cl)cc2C2(c3ccccc3)N3CCN=C3NN12 (configuration not stated)
- GI50 [1]: > 100 µM
- TGI [1]: > 100 µM
- GI50 [2]: 28.6 µM
- TGI [2]: > 100 µM
- GI50 [3]: 26.9 µM
- TGI [3]: 70.7 µM
- GI50 [4]: 21.7 µM
- TGI [4]: 57.3 µM
- GI50 [5]: 25.7 µM
- TGI [5]: 55.2 µM
- GI50 [6]: 55.9 µM
- TGI [6]: > 100 µM
- GI50 [7]: 67 µM
- TGI [7]: > 100 µM
- GI50 [8]: 28.1 µM
- TGI [8]: 45.4 µM
- GI50 [9]: 29.4 µM
- TGI [9]: > 100 µM

Structure (SMILES): CCN(c1ccc(Br)cc1)c1c(Br)c(=O)nc2ccccn12
- TGI [1]: > 100 µM
- TGI [2]: > 100 µM
- TGI [10]: > 100 µM
- TGI [3]: > 100 µM
- TGI [4]: > 100 µM
- TGI [5]: > 100 µM
- TGI [6]: > 100 µM
- TGI [8]: > 100 µM
- TGI [9]: > 100 µM

Structure (SMILES): CN1CC(C(=O)C2C(=O)c3ccccc3C2=O)C(=O)C(=O)C(C(=O)C2C(=O)c3ccccc3C2=O)C1 (configuration not stated)
- TGI [1]: > 100 µM
- TGI [2]: > 100 µM
- TGI [10]: > 100 µM
- TGI [3]: > 100 µM
- TGI [5]: > 10 µM
- TGI [6]: > 100 µM
- TGI [7]: > 100 µM
- TGI [9]: > 100 µM
